Patent US8778961B2, “O-methylated rapamycin derivatives for alleviation and inhibition of lymphoproliferative disorders” (The Trustees of the University of Pennsylvania, priority 2000, dated 2014)

Assays:
Assay in all cases: apoptosis (Annexin V flow cytometry)
Format in all cases: cell-based, human
Conditions in all cases: 24 hours
A1 line = system: A1 line
Protocol: (§1) The cell lines to be examined were cultured with several concentrations of SDZ RAD (0 to 10 nanomolar) for 24-48 hours. The cells were washed with DPBS and stain solution (pH 7.2) containing 3% PEG 6000, 50 micrograms per milliliter DNA fluorochrome propidium iodide (PI; Calbiochem, San Diego, Calif.), annexin V-FITC as described (Douglas et al., 1998, Cytometry 32:57-65) 0.1% (v/v) TRITON™ X (Sigma, St. Louis, Mo.), 4 millimolar citrate buffer pH 7.8, and 360 units per milliliter RNase A (Worthington Biochemicals, Freehold, N.J.) for 30 minutes at 37 C. Next, salt solution pH 7.2 (3% w/v PEG 6000, PI 50 micrograms per milliliter, 0.1% v/v TRITON™ X, and 0.4 molar NaCl) was added, and the cells were incubated at 4° C. in the dark for 1 hour before flow cytometry analysis was performed, as described (Douglas et al., 1998, Cytometry 32:57-65; Kawamata et al., 1998, Blood 91:561-569; Pepper et al., 1998, Leuk. Res. 22:439-444).
(§2) Previous studies have shown that immunosuppressive macrolides as represented by rapamycin can induce or enhance apoptosis stimulated by other agents (Gottschalk et al., 1994, Proc. Natl. Acad. Sci. USA 91:7350-7354; Muthukkumar et al., 1995, Transplantation 60:264-270; Shi et al., 1995, Cancer Res. 55:1982-1988; Hosoi et al., 1999, Cancer Res. 59:886-894). In order to determine if SDZ RAD affects the apoptotic rate in PTLD-like cells, we tested apoptosis-induced surface expression of Annexin V by flow cytometry in the 20A, A1, A2D6 cell lines (FIG. 3). […] In A2D6 line, it led to 11% increase, and in the 20A line to 12% increase. At the highest dose (10 nanomolar), SDZ RAD led to approximately 240% increase in A1 line and 45% increase in both A2D6 and 20A lines.

20A line = system: 20A line
Protocol: as §1, §2

A2D6 line = system: A2D6 line
Protocol: as §1, §2

Question: What does the source list for `CO[C@H]1C[C@@H]2CC[C@@H](C)[C@@](O)(O2)C(=O)C(=O)N2CCCC[C@H]2C(=O)O[C@H]([C@H](C)C[C@@H]2CC[C@@H](OCCO)[C@H](OC)C2)CC(=O)[C@H](C)/C=C(\C)[C@@H](O)[C@@H](OC)C(=O)[C@H](C)C[C@H](C)/C=C/C=C/C=C/1C` [SDZ RAD, 40-O-(2-hydroxy)ethyl-rapamycin]?
Answer: increase in the number of apoptotic cells (A1 line; 1 nanomolar): approximately 60%; percentage of apoptotic cells (A1 line; 1 nanomolar, from 10% without drug): 16%; increase in the number of apoptotic cells (A1 line; 10 nanomolar): approximately 240%; increase in the number of apoptotic cells (20A line; 1 nanomolar): 12%; increase in the number of apoptotic cells (20A line; 10 nanomolar): 45%; increase in the number of apoptotic cells (A2D6 line; 1 nanomolar): 11%; increase in the number of apoptotic cells (A2D6 line; 10 nanomolar): 45%
